Assay results as given in PubChem BioAssay (NCI).
Where “and” joins values, the source holds several entries; their conditions need not be identical. Equal values may be shown once.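 Compound exposure: 48 hours, 5 concentrations, 96-well plates. GI50 is the concentration that inhibits growth by half. TGI is the concentration that stops growth completely.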

What was measured:
Experiment in all cases: inhibition of tumour cell growth, NCI panel, 48 h
BT-549 breast = test system: BT-549 breast
HOP-62 NSCLC = test system: HOP-62 NSCLC
UACC-62 melanoma = test system: UACC-62 melanoma
M14 melanoma = test system: M14 melanoma
T-47D breast = test system: T-47D breast
OVCAR-8 ovarian = test system: OVCAR-8 ovarian
HCT-15 colon = test system: HCT-15 colon
MDA-MB-435 = test system: MDA-MB-435
COLO 205 colon = test system: COLO 205 colon
CCRF-CEM leukemia = test system: CCRF-CEM leukemia

Structure (SMILES)	GI50 (BT-549 breast)	TGI (BT-549 breast)	GI50 (HOP-62 NSCLC)	TGI (HOP-62 NSCLC)	GI50 (UACC-62 melanoma)	TGI (UACC-62 melanoma)	GI50 (M14 melanoma)	GI50 (T-47D breast)	TGI (T-47D breast)	GI50 (OVCAR-8 ovarian)	TGI (OVCAR-8 ovarian)	GI50 (HCT-15 colon)	TGI (HCT-15 colon)	GI50 (MDA-MB-435)	TGI (MDA-MB-435)	GI50 (COLO 205 colon)	TGI (COLO 205 colon)	GI50 (CCRF-CEM leukemia)	TGI (CCRF-CEM leukemia) [µM]	TGI (M14 melanoma)
Oc1cccc(-c2nc(N3CCOCC3)c3oc4ncccc4c3n2)c1	0.0515 µM and 0.036 µM	1.18 µM and 1.15 µM	0.234 µM and 0.227 µM	3.7 µM and 5.53 µM	1.05 µM and 0.471 µM	3.03 µM and 1.64 µM	0.127 µM and 0.152 µM	0.212 µM and 0.192 µM	1.34 µM and 0.814 µM	0.238 µM and 0.193 µM	6.75 µM	0.125 µM and 0.112 µM	> 100 µM	0.122 µM and 0.0675 µM	0.847 µM and 0.784 µM	10.5 µM and 17.8 µM	41.7 µM and > 72 µM	0.517 µM and 0.461 µM	> 100	–
N=C(N)SCC(=O)O	–	> 100 µM	–	> 100 µM	–	> 100 µM	–	–	> 100 µM	–	> 100 µM	–	> 100 µM	–	> 100 µM	–	> 100 µM	–	> 100	> 100 µM
O=C(Nc1nc2ccc(F)cc2s1)c1cccnc1Nc1ccc(Cl)cc1Cl	2.97 µM	17.5 µM	3.05 µM	12.8 µM	2.57 µM	17.2 µM	3.18 µM	1.61 µM	8.01 µM	3.43 µM	22.8 µM	3.35 µM	20.3 µM	3.04 µM	14.3 µM	1.72 µM	3.81 µM	1.82 µM	12.6	14.6 µM
COc1ccc2c(c1)c(-c1cc(-c3cn(C)c4ccc(OC)cc34)[nH]n1)cn2C	> 100 µM	> 100 µM	> 100 µM	> 100 µM	> 100 µM	> 100 µM	> 100 µM	> 100 µM	> 100 µM	> 100 µM	> 100 µM	> 100 µM	> 100 µM	> 100 µM	> 100 µM	> 100 µM	> 100 µM	> 100 µM	> 100	> 100 µM
CC(=O)OC1Oc2cc(C)c(C)cc2-c2oc(=O)c(-c3ccccc3)cc21 (stereo not drawn)	7.34 µM	> 31.9 µM	0.44 µM	21.9 µM	0.289 µM	> 32.6 µM	0.351 µM	0.352 µM	> 68.1 µM	0.545 µM	> 84.5 µM	0.323 µM	> 100 µM	0.036 µM	0.199 µM	0.385 µM	3.64 µM	0.364 µM	> 100	> 100 µM
C#CCn1cc(C=C2C(=O)NC(=S)NC2=O)c2cc(Cl)ccc21	1.91 µM	3.89 µM	2.64 µM	8.98 µM	1.85 µM	3.91 µM	2 µM	3.04 µM	14.1 µM	2.72 µM	7.44 µM	1.98 µM	4.64 µM	1.92 µM	4.36 µM	2.22 µM	5.28 µM	2.32 µM	6.45	4.76 µM
Cc1ccc(-c2cc(C(Cl)Cl)on2)cc1	> 100 µM	> 100 µM	95.5 µM	> 100 µM	66.8 µM	> 100 µM	74.1 µM	35.3 µM	> 100 µM	> 100 µM	> 100 µM	42.4 µM	> 100 µM	62.9 µM	> 100 µM	35.4 µM	> 100 µM	40.9 µM	> 100	> 100 µM
COc1ccccc1-c1nccc(COc2ccccc2C[C@@H](Oc2ncnc3sc(-c4ccc(F)cc4)c(-c4ccc(OCCN5CCN(C)CC5)c(Cl)c4C)c23)C(=O)O)n1	1.03 µM	2.59 µM	2.39 µM	7.21 µM	0.0761 µM	1.41 µM	1.73 µM	3.49 µM	23 µM	2.9 µM	> 28.4 µM	5.82 µM	16.4 µM	0.45 µM	2.21 µM	1.86 µM	4.33 µM	0.804 µM	> 35.7	4.05 µM
O=C1c2c(O)ccc(O)c2C(=O)c2c(NCCNCCO)ccc(NCCNCCO)c21	–	0.5 µM and 2.11 µM and 0.54 µM	–	0.122 µM and 0.0851 µM and 0.204 µM	–	0.218 µM and 0.756 µM and 0.595 µM	–	–	1.05 µM and 0.652 µM and 1.5 µM	–	0.388 µM and 0.414 µM and 0.665 µM	–	2.55 µM and 24 µM and 4.15 µM	0.297 µM	1.65 µM and 1.07 µM and 1.82 µM	–	1.23 µM and 0.769 µM and 1.16 µM	0.0139 µM	–	1.77 µM and 0.809 µM and 2.11 µM
C/C(N=NC(=S)N1CCCCCC1)=C1\C=CC=CN1O	–	> 100 µM	–	> 20.5 µM	–	24.6 µM	–	–	77.7 µM	–	> 49.4 µM	–	> 100 µM	–	> 100 µM	–	55.2 µM	–	4.93	38.8 µM
CCOc1cccc(/C=N/NC(=O)Cc2ccc(Nc3ccnc(C(F)(F)F)c3)cc2)c1O	2.34 µM	46.3 µM	2.28 µM	30.8 µM	1.64 µM	14.7 µM	1.79 µM	2.43 µM	26 µM	3.27 µM	> 100 µM	0.909 µM	> 100 µM	3.77 µM	> 100 µM	3.9 µM	> 100 µM	0.328 µM	2.76	15.8 µM
Nn1nnc2ccccc21	–	> 100 µM	–	> 100 µM	–	> 100 µM	–	–	> 100 µM	–	> 100 µM	–	> 100 µM	–	> 100 µM	–	> 100 µM	–	> 100	> 100 µM
COc1ccc(CNC(=O)c2ccc(-c3cc(-c4nnc(C)o4)ccc3C)cc2)cc1	13.3 µM	> 25 µM	17.5 µM	> 25 µM	11.1 µM	> 25 µM	> 25 µM	7.01 µM	> 25 µM	> 25 µM	> 25 µM	19.9 µM	> 25 µM	10.6 µM	> 25 µM	> 22.9 µM	> 25 µM	> 25 µM	> 25	> 25 µM
COc1cccc(C2CC(=O)Nc3cc4c(cc32)CCC4)c1OC (stereo not drawn)	3.57 µM	16.7 µM	5.97 µM	> 46.8 µM	2.9 µM	14.4 µM	2.59 µM	5.52 µM	52.3 µM	3.67 µM	31.9 µM	3.63 µM	25.8 µM	1.44 µM	4.1 µM	3.13 µM	8.48 µM	2.28 µM	7.08	8.94 µM
NC(=O)c1c(NC(=O)c2cccc(C(F)(F)F)c2)sc2c1CCC(=O)C2	0.352 µM	9.08 µM	3.06 µM	> 91.5 µM	0.368 µM	1.66 µM	0.437 µM	0.274 µM	–	0.519 µM	> 100 µM	0.321 µM	1.82 µM	0.622 µM	7.68 µM	0.437 µM	1.8 µM	0.163 µM	–	11.6 µM
Cc1cc([C@H](C)Nc2nccc(N3C(=O)OC[C@@H]3[C@H](C)F)n2)ncc1-c1ccnc(C(F)(F)F)c1	18.1 µM	82.6 µM	28.7 µM	> 100 µM	21.7 µM	> 100 µM	37.7 µM	16.4 µM	> 100 µM	33.5 µM	> 100 µM	35.5 µM	> 100 µM	41.1 µM	> 100 µM	21.9 µM	62.9 µM	38.1 µM	> 100	> 100 µM
CNc1ccc(N=Nc2cccc3ncccc23)cc1	24.4 µM	> 100 µM	49 µM	> 100 µM	13.1 µM	> 100 µM	44.3 µM	0.0346 µM	> 77.1 µM	98.1 µM	> 100 µM	16.1 µM	> 100 µM	19.7 µM	> 100 µM	2.48 µM	> 100 µM	> 24 µM	> 100	> 100 µM
NCCNc1nc2ccccc2c2c(=O)c3cc(F)cc(Cl)c3sc12	1.55 µM	2.93 µM	1.35 µM	3.04 µM	1.66 µM	3.06 µM	1.65 µM	1.55 µM	3.48 µM	1.61 µM	3.57 µM	1.18 µM	2.5 µM	1.73 µM	3.22 µM	1.69 µM	3.31 µM	1.31 µM	2.82	3.03 µM
CC(=O)c1c(Nc2ccc(F)c(F)c2F)[nH]c2c(F)cc(F)cc2c1=O	0.335 µM	5.76 µM	0.335 µM	8.18 µM	0.233 µM	0.836 µM	0.352 µM	0.25 µM	–	0.365 µM	> 100 µM	0.331 µM	1.73 µM	0.365 µM	7.26 µM	–	–	0.368 µM	> 100	4.06 µM
N#Cc1c(-c2ccc(Cl)cc2)csc1NC(=O)Nc1cccc(C(F)(F)F)c1	2.62 µM	9.23 µM	2.33 µM	8.04 µM	2.92 µM	12 µM	2.88 µM	1.76 µM	7.79 µM	–	–	2.38 µM	10.2 µM	2.73 µM	10.3 µM	1.91 µM	3.88 µM	3.17 µM	12	10.1 µM
